# Measurements as given in PubChem BioAssay (NCI).
# Values joined by “and” are separate entries in the source; they are usually repeats but may differ in a detail not shown here. Identical values can stand only once.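 How tested: cells in 96-well plates exposed to compound for 48 hours at five concentrations. At the GI50, growth is halved. TGI: total growth inhibition.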
# How the values were obtained:
# Assay in all cases: DTP human tumour cell line panel, 48 h
# A498 renal = system: A498 renal
# ACHN renal = system: ACHN renal
# BT-549 breast = system: BT-549 breast
# COLO 205 colon = system: COLO 205 colon
# HCC-2998 colon = system: HCC-2998 colon
# IGROV1 ovarian = system: IGROV1 ovarian
# NCI/ADR-RES ovarian = system: NCI/ADR-RES ovarian
# OVCAR-5 ovarian = system: OVCAR-5 ovarian
# PC-3 prostate = system: PC-3 prostate
# SW-620 colon = system: SW-620 colon
Compound,GI50 (A498 renal),TGI (A498 renal),GI50 (ACHN renal),TGI (ACHN renal),GI50 (BT-549 breast),TGI (BT-549 breast),GI50 (COLO 205 colon),TGI (COLO 205 colon),GI50 (HCC-2998 colon),TGI (HCC-2998 colon),GI50 (IGROV1 ovarian),TGI (IGROV1 ovarian),GI50 (NCI/ADR-RES ovarian),TGI (NCI/ADR-RES ovarian),GI50 (OVCAR-5 ovarian),TGI (OVCAR-5 ovarian),GI50 (PC-3 prostate),TGI (PC-3 prostate),GI50 (SW-620 colon),TGI (SW-620 colon)
COc1c2ccccc2c(O)c2c(=O)c(C(=O)O)cn(C)c12,18.8 µM,> 100 µM,> 100 µM,> 100 µM,> 100 µM,> 100 µM,> 100 µM,> 100 µM,> 100 µM,> 100 µM,> 100 µM,> 100 µM,> 100 µM,> 100 µM,> 100 µM,> 100 µM,> 100 µM,> 100 µM,> 100 µM,> 100 µM
CCOC(=O)/C=C1\SC(=Nc2ccc(C#N)cc2)N(CCN2C(=O)/C(=C/C(=O)OCC)SC2=Nc2ccc(C#N)cc2)C1=O,6.82 µM,20.5 µM,4.62 µM,17.9 µM,2.98 µM,16.4 µM,3.05 µM,11.5 µM,2.4 µM,6.61 µM,1.99 µM,10.7 µM,3.21 µM,42.3 µM,6.75 µM,30.8 µM,1.28 µM,13.4 µM,0.416 µM,2.63 µM
O=C(Oc1ccc([N+](=O)[O-])cc1)N1CCN(Cc2cccc(Oc3ccccc3)c2)CC1,> 47.6 µM,> 100 µM,> 100 µM,> 100 µM,52 µM,> 100 µM,> 83.5 µM,> 100 µM,> 100 µM,> 100 µM,> 100 µM,> 100 µM,> 100 µM,> 100 µM,> 100 µM,> 100 µM,> 69.6 µM,> 100 µM,> 100 µM,> 100 µM
CC(C)(C)OC(=O)NCCCCCCCCn1c2c(c3ccccc3c1=O)C(=O)c1ccccc1-2,15.5 µM,> 47.7 µM,10.9 µM,> 30 µM,15.6 µM,> 50 µM,> 50 µM,> 50 µM,> 50 µM,> 50 µM,14.3 µM,> 50 µM,> 42.1 µM,> 50 µM,> 43 µM,> 50 µM,> 50 µM,> 50 µM,> 50 µM,> 50 µM
COc1cc(-c2oc3c(OC)c(OC)cc(O)c3c(=O)c2OC)ccc1O,3.38 µM and 16.6 µM,> 100 µM and 42.4 µM,1.84 µM and 4.71 µM,–,–,35.7 µM,–,> 100 µM,> 100 µM and 31 µM,> 100 µM,–,> 100 µM and 35.5 µM,–,> 50 µM,–,> 50 µM,–,> 50 µM,> 100 µM and 37.8 µM,> 100 µM
COc1ncc(-c2nc3c(n2C(C)C)[C@H](c2ccc(Cl)cc2)N(c2cc(Cl)cn(C)c2=O)C3=O)c(OC)n1,19.2 µM,84.6 µM,15.2 µM,> 100 µM,36.7 µM,> 100 µM,36.9 µM,> 100 µM,60.1 µM,> 100 µM,22.1 µM,> 100 µM,44 µM,> 100 µM,> 100 µM,> 100 µM,20.2 µM,> 100 µM,63.7 µM,> 100 µM
